Measurements published in patent publication US12168671B2, “Phosphohistidine mimetics and antibodies to same” (The Trustees of Princeton University, priority 2013, dated 2024).

Experiment: second pKa from 31P shift
Format: physicochemical
Source text: This means that both the pPye and pHis have the same charge state at physiological pH. Since the pKa2 of pHis is […], both of the phosphate group oxygen atoms in pHis will be depronated. For pPye, the doubly deprotonated state will be favored at physiological pH (pH 7.4), well mimicking pHis.

NCCn1cc(P(=O)(O)O)cn1 [pPye]
pKa: ~6.7
